# In PMC6923382, “Small molecules that inhibit TNF signalling by stabilising an asymmetric form of the trimer” (Nature Communications, 2019):
# Entries after “also recorded” stand apart in the source; their conditions may differ.
# Key:
# TNF [1] = biological target: T1, TNF (Homo sapiens, UniProt P01375); test: Biacore SPR fragment binding to immobilised TNF; set-up: Human TNF (CID2043, UniProt P01375 residues 77–233); 6XHis-Smt3 (N, cleaved yes); host or cells: E. coli TOP10; details: SPR fragment screen; concentration-dependent response
# Excerpt: (§1) BIA (Biomolecular Interaction Analysis) uses SPR to measure the binding of compounds to a protein immobilised on a chip surface. For this purpose a Biacore A100/4000 (GE Healthcare) was used. A CM5 sensor was immobilised via amine coupling on flow cell 1 with human Fc antibody domain (10k response units; kRU) and TNFR-Fc captured (2.5 kRU), flow cell 2 TNF (11 kRU), flow cell 3 was left blank (for non-specific binding), flow cell 4 TNFR-Fc (10 kRU), and flow cell 5 goat anti-human Fc 16 kRU). The sensor surface was then equilibrated in HBS-P (10 mM HEPES pH 7.4, 0.15 M NaCl, 0.005% Surfactant P20, BIAcore, GE Healthcare) with 5% DMSO for at least 5 h. Compounds were diluted from 100 mM stocks into DMSO matched buffer and then flowed over the immobilised flow cells at a concentration of 250 µM at the maximum flow rate of 30 μL/min. Background subtraction binding curves were analysed using the Biacore A100 BIA evaluation software version 1.1 following standard procedures.
# Target sequence in this assay (P01375 77-233): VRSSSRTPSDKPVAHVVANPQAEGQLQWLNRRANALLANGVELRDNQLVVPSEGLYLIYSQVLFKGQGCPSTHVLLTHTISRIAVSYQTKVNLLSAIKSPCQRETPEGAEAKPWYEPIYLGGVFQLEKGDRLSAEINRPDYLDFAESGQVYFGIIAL
# TNF [2] = biological target: T1, TNF; test: Biacore kinetics of binding; set-up: Human TNF (CID2043, UniProt P01375 residues 77–233); 6XHis-Smt3 (N, cleaved yes); host or cells: E. coli TOP10; details: SPR, multicycle, Biacore T100
# Protocol: Surface plasmon resonance using a Biacore T100/T200 was used to measure the association rate constant (ka), the dissociation rate constant (kd) and the affinity (KD) of compounds. TNF (VCID 2043 Beryllium) was immobilised to approximately 5 kRU as described above and equilibrated for at least 5 h in HBS P + buffer with 5% DMSO. UCB-6876 was serially diluted from 187.5 µM, flowing over the immobilised TNF at 50 µL/min for 3 min before allowing full dissociation under flow for at least 6 min. […] […] The compounds were allowed to dissociate for 2 h under flow.
# Target sequence in this assay (P01375 77-233): as above
# TNF [3] = biological target: T1, TNF; test: Biacore binding with and without non-ionic detergent; set-up: stabilise an asymmetrical form of the soluble TNF trimer; details: 0.01% v/v Triton X-100 and 0.025% v/v Tween-80; Biacore T200
# Protocol: Experiments to show any effect of addition of non-ionic detergent were performed on a Biacore, with human TNF on the solid phase and compounds in solution phase in the presence and absence of 0.01% v/v Triton X-100 and 0.025% v/v Tween-80.
# Three Biacore T200s were treated with sodium hypochlorite to remove any traces of detergent. Each machine was equilibrated in either HBS with no detergent (control), HBS:
# Tween-P80 (0.025% v/v) or HBS: Triton X-100 (0.01% v/v). Human TNF was tethered to ~ 2000 RU before equilibration in the equivalent control or detergent buffers plus 1% DMSO. […]
# were fitted to a BIAevaluation T200 1:1 algorithm and the fitted data shown. […]
# Target sequence in this assay (P01375 77-233 limits assumed): as the sequence (P01375 77-233) above
# [4] = test system: TNFR1 extracellular domain and control proteins; test: Biacore SPR binding to control surfaces; details: capture antibody plus TNFR1, capture antibody
# Excerpt: as §1
# TNF [5] = biological target: T1, TNF; test: Mass spectrometry monomer exchange; assay type: biochemical; set-up: stabilise an asymmetrical form of the soluble TNF trimer; details: human TNF pre-incubated with compound, mixed 1:1 with mouse TNF
# Protocol: Mouse and human TNF protein were made up to a concentration of 2 mg/mL (20 mM ammonium acetate, pH 7.4) and desalted and buffer-exchanged using Zeba columns. The protein was then diluted to 20 μM in ammonium acetate buffer. An aliquot of each was mixed 1:1 and analysed at various time points. Human TNF was incubated (1:1, v/v) with compound (20 μΜ), 4% DMSO in 20 mM ammonium acetate) and mixed with mouse TNF (1:1) and tested at various time points using an Advion Nanomate (for sample introduction by nanospray) and ThermoFisher Exactive Plus EMR Mass Spectrometer. The following settings were utilised on the mass spectrometer: scan range 1000 to 8000 m/z; spray voltage 1.5 kV; capillary temperature 150 °C; S-lens RF 200; source DC offset 25 V, injection flatapole 7 V; inter flatapole 6 V; bent flatapole DC 6 V; EMR mode on. Data were processed using ThermoFisher Protein Deconvolution 3.0.
# Target sequence in this assay (P01375 77-233 limits assumed): as the sequence (P01375 77-233) above
structure (smiles),measurement,setting,value
Cc1ccc(C)c(Cn2c(CO)nc3ccccc32)c1 [UCB-6876],binding to immobilised TNF,TNF [1],bound to TNF; also recorded: specifically binds to immobilised TNF
same,Kd,TNF [2]; read-out: KD (kd/ka),22 µM
same,kon,TNF [2]; read-out: association rate constant ka,923 M⁻¹ s⁻¹
same,koff,TNF [2]; read-out: dissociation rate constant kd,0.02 s⁻¹
same,effect of non-ionic detergents on binding to human TNF,TNF [3],does not alter the binding
same,binding to TNFR1 and control proteins (selectivity),[4],selectivity over the TNFR1 extracellular domain and control proteins; also recorded: not to control proteins
same,exchange of mouse and human TNF monomers,TNF [5],blocks the exchange of mouse and human monomers
